# From article PMC10023787, “Trio-pharmacophore DNA-encoded chemical library for simultaneous selection of fragments and linkers” (Nature Communications, 2023)
# Like-named read-outs stand apart in the source and are kept apart here.
# Experiments:
# MMP-9 [1] = target: T1, MMP-9 (Homo sapiens, UniProt P14780); assay: De novo T-DEL selection against MMP-9, NGS decoding; format: binding; conditions: de novo T-DEL selection against MMP-9
# T1 construct: purchased Sino Biological 10327-HNAH
# From the text: (§1) Matrix metalloproteinases (MMPs) are zinc-dependent endopeptidases capable of degrading and remodeling extracellular matrix components[46],[47]. They are attractive therapeutic targets as high expression levels were detected in various diseases, such as inflammatory diseases, and at different stages of cancers, including metastasis, invasion, and angiogenesis[47]–[53]. As shown in Supplementary Fig. 3c, we performed selections against the two gelatinases (human MMP-2 and human MMP-9) to identify binding fragments for later design and synthesis of small molecule inhibitors. After selection, the three sub-libraries were decoded, and the enrichment was calculated by dividing the post-selection fraction (count/total counts) by the pre-selection fraction (Fig. 4a and Supplementary Fig. 13).
# (§2) 4 µg of MMP-2/MMP-9 was dissolved in 100 µl of selection buffer containing 25 mM Tris-base, 10 mM CaCl2, 150 mM NaCl, 0.05% Tween 20, pH 7.5. 10 µl of 4-Aminophenylmercuric acetate (APMA) (100 mM) solution was added to the protein solution and incubated at 37 °C for 1 h. After activation, the solution was added on top of 40 µl pre-washed Ni-NTA resin and incubated for 30 min on a rotary shaker. The supernatant was discarded, and the resin was washed three times with the selection buffer.
# (§3) For each independent selection, three sub-libraries were mixed in the selection buffer with a final concentration of 40 nM of each sub-library in 100 µl. The mixture was heat denatured at 90 °C for 1 min and slowly cooled down to allow the formation of the trio-pharmacophore library. The dynamic dual-pharmacophore DEL was provided by DyNAbind GmbH (Merck, DYNA001).
# (§4) The assembled library was incubated with the protein-bound solid support for 2 h at RT on a rotary shaker. In parallel, selection on bare solid support served as the negative control to exclude promiscuous binders on the resin. After panning, the supernatant was discarded, and the resin was washed three times with 1 ml selection buffer. Finally, 100 µl of 50 mM Tris buffer, pH 7.4 was added to resuspend the resin and the resin was incubated at 95 °C for 5 min to denature the protein, release, and collect the bound library members.
# (§5) The eluted library members were subjected to sample preparation for NGS. NGS preparation was achieved by two-step PCR. First, the individual selection was indexed using primers containing unique sequences corresponding to each selection. The amplified product was purified from 2% agarose gel. Second, the purified DNA from all selections were pooled in equal amount and subjected to the 2nd PCR step to attach sequences compatible with the NGS flow cell and the sequencing primers. NGS was performed by Novogene UK with Novaseq 6000. Raw data files (fastq files) obtained were decoded using a custom python script and excel. The sequence reads corresponding to each sample was retrieved by searching for the correct index unique to each selection. Then, the code region was extracted from each sequence and assigned to the corresponding identity. The count of each code in each selection sample was obtained by looping through the total reads and counting the occurrence of each code. The enrichment fold of each compound was calculated by first, dividing the count by the total count to get the abundance, second, the abundance after the selection was divided by the abundance of pre-selection to reflect the distribution change of the compound. Next, the enrichment fold was plotted against the count for each member of the library to give the scatter plots as in Fig. 4.
# MMP-9 [2] = target: T1, MMP-9; assay: MMP-9 inhibition assay (fluorogenic peptide substrate); format: biochemical
# In short: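 Human proMMP-2 and proMMP-9 were activated with 1 mM APMA (37 °C, 2 h), then used at 6.5 nM (MMP-2) or 10 nM (MMP-9) in Tris/NaCl/CaCl2/Brij 35 buffer, pH 7.5. Enzyme was preincubated with compound 30 min at RT; 25 μM DNP-Pro-Leu-Gly-Met-Trp-Ser-Arg substrate was added and fluorescence (ex 280/em 360 nm) followed 30 min. IC50 from logistic fits of Vmax.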
# MMP-9 [3] = target: T1, MMP-9; assay: Dynamic dual-pharmacophore DEL selection against MMP-9, NGS decoding; format: binding; conditions: MMP9 selection
# From the text: as §1, §2, §3, §4, §5
# T1 sequence (P14780 107-707 limits assumed): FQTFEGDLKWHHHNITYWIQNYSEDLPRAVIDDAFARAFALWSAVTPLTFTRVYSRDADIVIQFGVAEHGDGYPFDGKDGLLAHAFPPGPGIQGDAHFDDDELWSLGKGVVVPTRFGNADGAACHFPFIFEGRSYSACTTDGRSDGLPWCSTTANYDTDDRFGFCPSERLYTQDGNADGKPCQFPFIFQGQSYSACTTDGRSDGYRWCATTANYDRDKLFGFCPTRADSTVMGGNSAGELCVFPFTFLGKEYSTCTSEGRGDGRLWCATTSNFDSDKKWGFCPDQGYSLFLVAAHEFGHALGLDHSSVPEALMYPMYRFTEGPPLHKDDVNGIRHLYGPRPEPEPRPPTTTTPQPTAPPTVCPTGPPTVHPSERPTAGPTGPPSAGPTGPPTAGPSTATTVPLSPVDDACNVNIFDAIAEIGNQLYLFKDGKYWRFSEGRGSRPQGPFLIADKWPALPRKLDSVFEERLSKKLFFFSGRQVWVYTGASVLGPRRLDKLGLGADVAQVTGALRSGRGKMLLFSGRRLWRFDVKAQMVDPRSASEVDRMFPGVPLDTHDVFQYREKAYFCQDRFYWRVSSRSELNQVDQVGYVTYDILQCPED
smiles,measurement,setting,value
NCc1c[nH]nn1 [Compound 787],MMP9 SL-A Count,MMP-9 [1]; NGS sequence count of sub-library SL-A building block,949
same,MMP9 SL-C Count,MMP-9 [1]; NGS sequence count of sub-library SL-C building block,3684
same,MMP9 SL-A Enrichment Fold,MMP-9 [1]; sub-library SL-A building block,0.9459
same,MMP9 SL-C Enrichment Fold,MMP-9 [1]; sub-library SL-C building block,3.649
same,remaining activity at 0.078016 µM,"MMP-9 [2]; Figure 5b, fragment concentration 0.078016 µM, read-out: Normalized activity (Mean)",99.6%
same,remaining activity at 0.39008 µM,"MMP-9 [2]; Figure 5b, fragment concentration 0.39008 µM, read-out: Normalized activity (Mean)",103%
same,remaining activity at 1.9504 µM,"MMP-9 [2]; Figure 5b, fragment concentration 1.9504 µM, read-out: Normalized activity (Mean)",88%
same,remaining activity at 9.752 µM,"MMP-9 [2]; Figure 5b, fragment concentration 9.752 µM, read-out: Normalized activity (Mean)",89.2%
same,remaining activity at 48.76 µM,"MMP-9 [2]; Figure 5b, fragment concentration 48.76 µM, read-out: Normalized activity (Mean)",88.6%
same,remaining activity at 243.8 µM,"MMP-9 [2]; Figure 5b, fragment concentration 243.8 µM, read-out: Normalized activity (Mean)",78.5%
same,remaining activity at 1219 µM,"MMP-9 [2]; Figure 5b, fragment concentration 1219 µM, read-out: Normalized activity (Mean)",32.5%
same,remaining activity at 0.08 µM,"MMP-9 [2]; MMP-9, concentration 0.08 µM, read-out: Mean (MMP-9, Supplementary fig 16)",99.6%
same,remaining activity at 0.39 µM,"MMP-9 [2]; MMP-9, concentration 0.39 µM, read-out: Mean (MMP-9, Supplementary fig 16)",103%
same,remaining activity at 1.95 µM,"MMP-9 [2]; MMP-9, concentration 1.95 µM, read-out: Mean (MMP-9, Supplementary fig 16)",88%
same,remaining activity at 9.75 µM,"MMP-9 [2]; MMP-9, concentration 9.75 µM, read-out: Mean (MMP-9, Supplementary fig 16)",89.2%
same,remaining activity at 48.76 µM,"MMP-9 [2]; MMP-9, concentration 48.76 µM, read-out: Mean (MMP-9, Supplementary fig 16)",88.6%
same,remaining activity at 243.8 µM,"MMP-9 [2]; MMP-9, concentration 243.80 µM, read-out: Mean (MMP-9, Supplementary fig 16)",78.5%
same,remaining activity at 1219 µM,"MMP-9 [2]; MMP-9, concentration 1219.00 µM, read-out: Mean (MMP-9, Supplementary fig 16)",32.5%
same,remaining activity at 0.08 µM,"MMP-9 [2]; MMP-9, concentration 0.08 µM, read-out: Mean (MMP-9 dose-response, Supplementary fig 15)",99.6%
same,remaining activity at 0.08 µM,"MMP-9 [2]; MMP-9, concentration 0.08 µM, read-out: Mean (dose-response, Supplementary fig 17)",99.6%
same,remaining activity at 0.39 µM,"MMP-9 [2]; MMP-9, concentration 0.39 µM, read-out: Mean (MMP-9 dose-response, Supplementary fig 15)",103%
same,remaining activity at 0.39 µM,"MMP-9 [2]; MMP-9, concentration 0.39 µM, read-out: Mean (dose-response, Supplementary fig 17)",103%
same,remaining activity at 1.95 µM,"MMP-9 [2]; MMP-9, concentration 1.95 µM, read-out: Mean (MMP-9 dose-response, Supplementary fig 15)",88%
same,remaining activity at 1.95 µM,"MMP-9 [2]; MMP-9, concentration 1.95 µM, read-out: Mean (dose-response, Supplementary fig 17)",88%
same,remaining activity at 9.75 µM,"MMP-9 [2]; MMP-9, concentration 9.75 µM, read-out: Mean (MMP-9 dose-response, Supplementary fig 15)",89.2%
same,remaining activity at 9.75 µM,"MMP-9 [2]; MMP-9, concentration 9.75 µM, read-out: Mean (dose-response, Supplementary fig 17)",89.2%
same,remaining activity at 48.76 µM,"MMP-9 [2]; MMP-9, concentration 48.76 µM, read-out: Mean (MMP-9 dose-response, Supplementary fig 15)",88.6%
same,remaining activity at 48.76 µM,"MMP-9 [2]; MMP-9, concentration 48.76 µM, read-out: Mean (dose-response, Supplementary fig 17)",88.6%
same,remaining activity at 243.8 µM,"MMP-9 [2]; MMP-9, concentration 243.80 µM, read-out: Mean (MMP-9 dose-response, Supplementary fig 15)",78.5%
same,remaining activity at 243.8 µM,"MMP-9 [2]; MMP-9, concentration 243.80 µM, read-out: Mean (dose-response, Supplementary fig 17)",78.5%
same,remaining activity at 1219 µM,"MMP-9 [2]; MMP-9, concentration 1219.00 µM, read-out: Mean (MMP-9 dose-response, Supplementary fig 15)",32.5%
same,remaining activity at 1219 µM,"MMP-9 [2]; MMP-9, concentration 1219.00 µM, read-out: Mean (dose-response, Supplementary fig 17)",32.5%
same,inhibitory effect,MMP-9 [2]; in words,high µM
same,IC50,"MMP-9 [2]; mean ± SE, n.d: not detected, Fig. 5e prints no unit, µM, read-out: IC50",784 ± 115 µM
same,MMP9 3L Enrichment Fold,MMP-9 [3]; 3L library (Supplementary fig 13),3.649
same,MMP9 3L Count,"MMP-9 [3]; 3L library, sequence count (Supplementary fig 13)",3684
same,MMP9 5L Enrichment Fold,MMP-9 [3]; 5L library (Supplementary fig 13),0.7364
same,MMP9 5L Count,"MMP-9 [3]; 5L library, sequence count (Supplementary fig 13)",628
